The term Ki denotes a measure of affinity in units of concentration, obtained from inhibition or displacement. A lower Ki goes with a stronger hold on the target.

The target in the experiment is T1, hCRTH2 (Homo sapiens, UniProt Q9Y5Y4).
T1 construct: expressed in transfected cells; host or cells: HEK (human embryonic kidney) cells expressing hCRTH2; membrane preparation
T1 sequence (Q9Y5Y4 1-395): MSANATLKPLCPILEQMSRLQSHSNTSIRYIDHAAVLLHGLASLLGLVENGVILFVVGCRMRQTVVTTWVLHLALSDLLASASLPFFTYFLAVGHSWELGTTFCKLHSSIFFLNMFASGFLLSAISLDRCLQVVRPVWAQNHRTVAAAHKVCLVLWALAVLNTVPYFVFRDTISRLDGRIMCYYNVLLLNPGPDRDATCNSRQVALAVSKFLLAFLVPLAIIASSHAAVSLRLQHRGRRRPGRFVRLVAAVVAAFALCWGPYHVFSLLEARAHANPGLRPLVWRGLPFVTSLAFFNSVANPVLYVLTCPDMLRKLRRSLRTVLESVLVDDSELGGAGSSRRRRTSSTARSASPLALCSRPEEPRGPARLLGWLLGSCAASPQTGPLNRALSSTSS
As to the kind of experiment: Radioligand binding assay ([3H]PGD2 competition, HEK-hCRTH2 membranes). A digest of the protocol: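 Membranes (8-20 μg protein) from HEK-hCRTH2 cells were incubated 60 min at room temperature with 3.0 nM [3H]PGD2 in 50 mM Tris-HCl pH 7.4, 1 mM EDTA, 2 mM MnCl2, 1% DMSO. Non-specific binding defined with 10 μM PGD2. Bound radioactivity counted after filtration.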

For the setting “[3H]PGD2 competition, Table B”, `C[C@@H](CCCc1nc2cc(C(=O)N3CCN(c4ccccc4)CC3)ccc2nc1-c1ccc(F)cc1)C(=O)O` [compound 524, (S)-5-(3-(4-fluorophenyl)-7-(4-phenylpiperazine-1-carbonyl)quinoxalin-2-yl)-2-methylpentanoic acid] returned a Ki of 0.0021 to 0.02 µM.
Still for that read-out and setting: then `Cc1nnc(CNC(=O)c2ccc3nc(-c4ccc(F)cc4)c(CCCCC(=O)O)nc3c2)o1` [compound 525, 5-(3-(4-fluorophenyl)-7-(((5-methyl-1,3,4-oxadiazol-2-yl)methyl)carbamoyl)quinoxalin-2-yl) pentanoic acid], with 0.0201 to 0.2 µM.
Regarding `Cc1cc2nc(-c3ccccc3)c(CCCCC(=O)O)nc2cc1C(=O)N[C@@H]1CCCc2ccccc21` [compound 526, (R)-5-(6-methyl-3-phenyl-7-((1,2,3,4-tetrahydronaphthalen-1-yl)carbamoyl)quinoxalin-2-yl)pentanoic acid], the Ki is 0.259 µM ([3H]PGD2 binding, values in text) and 0.201 to 0.7 µM ([3H]PGD2 competition, Table B).
`C[C@@H](NC(=O)c1ccc2nc(-c3ccc(F)cc3)c(CCCC(F)(F)C(=O)O)nc2c1)c1ccc(Cl)cc1` [compound 527, (R)-5-(7-((1-(4-chlorophenyl)ethyl)carbamoyl)-3-(4-fluorophenyl)quinoxalin-2-yl)-2,2-difluoropentanoic acid] registered a Ki ([3H]PGD2 competition, Table B) of 0.0021 to 0.02 µM.
`O=C(N[C@H](c1ccc(F)cc1)C(F)(F)F)c1ccc2nc(-c3ccc(F)cc3)c(CCCC(F)(F)C(=O)O)nc2c1` [compound 528, (R)-2,2-difluoro-5-(3-(4-fluorophenyl)-7-((2,2,2-trifluoro-1-(4-fluorophenyl)ethyl)carbamoyl)quinoxalin-2-yl)pentanoic acid] registered a Ki ([3H]PGD2 competition, Table B) of 0.0201 to 0.2 µM.
Regarding `CN(Cc1ccc(F)cc1)C(=O)c1ccc2nc(-c3ccc(F)cc3)c(CCCC(F)(F)C(=O)O)nc2c1` [compound 529, 2,2-difluoro-5-(7-((4-fluorobenzyl)(methyl)carbamoyl)-3-(4-fluorophenyl)quinoxalin-2-yl)pentanoic acid], the Ki ([3H]PGD2 competition, Table B) is 0.0201 to 0.2 µM.
`O=C(c1ccc2nc(-c3ccc(F)cc3)c(CCCC(F)(F)C(=O)O)nc2c1)N1CCN(c2ccccc2)CC1` [compound 530] came in with a Ki ([3H]PGD2 competition, Table B) of 0.0201 to 0.2 µM.
On the same count and under the same terms, then `O=C(c1ccc2nc(-c3ccc(F)cc3)c(CCCC(F)(F)C(=O)O)nc2c1)N1CCC(c2ccccc2)CC1` [compound 531, 2,2-difluoro-5-(3-(4-fluorophenyl)-7-(4-phenylpiperidine-1-carbonyl)quinoxalin-2-yl)pentanoic acid], with 0.0021 to 0.02 µM.
Same read-out and setting: then `O=C(O)CCCCc1nc2cc(C(=O)N[C@@H]3CCOc4cc(F)ccc43)ccc2nc1-c1ccc(Cl)cc1` [compound 532, (R)-5-(3-(4-chlorophenyl)-7-((7-fluorochroman-4-yl)carbamoyl)quinoxalin-2-yl)pentanoic acid], with 0.0021 to 0.02 µM.
Still for that read-out and setting: then `O=C(O)CCCCc1nc2cc(C(=O)N[C@@H]3CCOc4cc(F)c(F)cc43)ccc2nc1-c1ccc(Cl)cc1` [compound 533, (R)-5-(3-(4-chlorophenyl)-7-((6,7-difluorochroman-4-yl)carbamoyl)quinoxalin-2-yl)pentanoic acid], with 0.0021 to 0.02 µM.
In turn, `O=C(O)CCCCc1nc2cc(C(=O)N[C@H]3CCOc4ccc(F)cc43)ccc2nc1-c1ccc(Cl)cc1` [compound 534, (S)-5-(3-(4-chlorophenyl)-7-((6-fluorochroman-4-yl)carbamoyl)quinoxalin-2-yl)pentanoic acid] displayed an inhibition constant (Ki) ([3H]PGD2 competition, Table B) of 0.0021 to 0.02 µM.
The same measure, in the same setting: then `C[C@H](NC(=O)c1ccc2nc(-c3ccc(F)cc3)c(CCCCC(=O)O)nc2c1)c1ccc2ccccc2c1` [compound 535, (S)-5-(3-(4-fluorophenyl)-7-((1-(naphthalen-2-yl)ethyl)carbamoyl)quinoxalin-2-yl)pentanoic acid], with 0.0021 to 0.02 µM.
`C[C@H](NC(=O)c1ccc2nc(-c3ccc(F)cc3)c(CCCCC(=O)O)nc2c1)c1cccc2ccccc12` [compound 536, (S)-5-(3-(4-fluorophenyl)-7-((1-(naphthalen-1-yl)ethyl)carbamoyl)quinoxalin-2-yl)pentanoic acid]: the Ki ([3H]PGD2 competition, Table B) was 0.0021 to 0.02 µM.
Still for that read-out and setting: then `O=C(O)CCCCc1nc2cc(C(=O)N[C@@H]3CCOc4ccc(F)cc43)ccc2nc1-c1ccc(F)cc1` [compound 537, (R)-5-(7((6-fluorochroman-4-yl)carbamoyl)-3-(4-fluorophenyl)quinoxalin-2-yl)pentanoic acid], with 0.0021 to 0.02 µM; and `O=C(O)CCCCc1nc2cc(C(=O)N[C@@H]3CCOc4cc(F)c(F)cc43)ccc2nc1-c1ccc(F)cc1` [compound 538, (R)-5-(7-((6,7-difluorochroman-4-yl)carbamoyl)-3-(4-fluorophenyl)quinoxalin-2-yl)pentanoic acid], with 0.0021 to 0.02 µM.
Still for that read-out and setting: then `C[C@@H]1CN(c2ccc(Cl)cc2)CCN1C(=O)c1ccc2nc(-c3ccc(Cl)cc3)c(CCCCC(=O)O)nc2c1` [compound 539, (R)-5-(3-(4-chlorophenyl)-7-(4-(4-chlorophenyl)-2-methylpiperazine-1-carbonyl)quinoxalin-2-yl)pentanoic acid], with 0.0021 to 0.02 µM; and `C[C@@H]1CN(c2ccc(Cl)cc2)CCN1C(=O)c1ccc2nc(-c3ccc(F)cc3)c(CCCCC(=O)O)nc2c1` [compound 540, (R)-5-(7-(4-(4-chlorophenyl)-2-methylpiperazine-1-carbonyl)-3-(4-fluorophenyl)quinoxalin-2-yl)pentanoic acid], with 0.0021 to 0.02 µM; and `C[C@H]1CN(c2ccc(Cl)cc2)CCN1C(=O)c1ccc2nc(-c3ccc(Cl)cc3)c(CCCCC(=O)O)nc2c1` [compound 541, (S)-5-(3-(4-chlorophenyl)-7-(4-(4-chlorophenyl)-2-methylpiperazine-1-carbonyl)quinoxalin-2-yl)pentanoic acid], with 0.0021 to 0.02 µM.
Consider `C[C@H]1CN(c2ccc(Cl)cc2)CCN1C(=O)c1ccc2nc(-c3ccc(F)cc3)c(CCCCC(=O)O)nc2c1` [compound 542, (S)-5-(7-(4-(4-chlorophenyl)-2-methylpiperazine-1-carbonyl)-3-(4-fluorophenyl)quinoxalin-2-yl)pentanoic acid], for which, for the setting “[3H]PGD2 competition, Table B”, the Ki is 0.0021 to 0.02 µM.
Compound `O=C(O)Cc1cccc(CCCc2nc3cc(C(=O)N4CCN(c5ccccc5)CC4)ccc3nc2-c2ccc(Cl)cc2)c1` [compound 543, 2-(3-(3-(3-(4-chlorophenyl)-7-(4-phenylpiperazine-1-carbonyl)quinoxalin-2-yl)propyl)phenyl)acetic acid] registered a Ki ([3H]PGD2 competition, Table B) of 0.0201 to 0.2 µM.
The same measure, in the same setting: then `CN(Cc1ccc(F)cc1)C(=O)c1ccc2nc(-c3ccc(Cl)cc3)c(CCCc3cccc(CC(=O)O)c3)nc2c1` [compound 544, 2-(3-(3-(3-(4-chlorophenyl)-7-((4-fluorobenzyl) (methyl)carbamoyl)quinoxalin-2-yl)propyl)phenyl)acetic acid], with 0.0201 to 0.2 µM; and `C[C@@H](NC(=O)c1ccc2nc(-c3ccc(Cl)cc3)c(CCCc3cccc(CC(=O)O)c3)nc2c1)c1ccc(F)cc1` [compound 545, (R)-2-(3-(3-(3-(4-chlorophenyl)-7-((1-(4-fluorophenyl)ethyl)carbamoyl)quinoxalin-2-yl)propyl)phenyl)acetic acid], with 0.201 to 0.7 µM.
Still for that read-out and setting: then `O=C(O)Cc1cccc(CCCc2nc3cc(C(=O)NCc4ccc(Cl)cc4)ccc3nc2-c2ccc(Cl)cc2)c1` [compound 546, 2-(3-(3-(7-((4-chlorobenzyl)carbamoyl)-3-(4-chlorophenyl)quinoxalin-2-yl)propyl)phenyl) acetic acid], with 0.0201 to 0.2 µM; and `O=C(N[C@@H]1CCOc2ccccc21)c1ccc2nc(-c3ccc(F)cc3)c(CCCC(F)(F)C(=O)O)nc2c1` [compound 547], with 0.0201 to 0.2 µM.

Values taken from patent publication US9469615B2, “Quinoxalines and AZA-quinoxalines as CRTH2 receptor modulators” (Merck Sharp & Dohme Corp., priority 2010, dated 2016).
